Patent publication US5273991A, “Imidazole-containing compositions and methods of use thereof analogs of distamycin” (Research Corporation Technologies, Inc., priority 1992, dated 1993)

Assays:
calf thymus DNA = test: ethidium displacement assay, calf thymus DNA; assay type: binding; details: ± 0.02 × 10^5 M^-1, pH 7.4
Description: (§1) The ethidium displacement assay is based on the fact that ethidium binding to DNA causes a large (approximately 25 fold) florescence enhancement as a result of the hydrophobic environment surrounding the ethidium molecule. Displacement of ethidium results in decreased fluorescence, and thus binding constants of drugs to DNA can be estimated and compared by measuring the loss of fluorescence as a function of added drug. The drug concentration which produces 50% inhibition of florescence is approximately inversely proportional to the apparent binding constant.
(§2) The relative DNA binding constants (Kapp) of distamycin and Compounds 6-10 to calf thymus DNA, T4 coliphage DNA, poly(dAdT) and poly(dGdC) were determined using the ethidium displacement assay (Morgan et al., 1979). The Kapp of ethidium bromide (Debart et al., 1989) is included for comparison. 25 μL of a 2A260 DNA solution was added to 2 mL of ethidium bromide buffer (250 μL of 1.3 mM ethidium bromidestock, 314.9 mg Tris-HCl, 60.8 mg Tris base and 930/mg of Na2 EDTA.2H2 O in 250 ml H2 O) pH 7.4 and the maximum fluorescence was measured (excitation wavelength=546 nm, emission wavelength=600 nm) at ambient temperature.
(§3) DNA solutions of 2A260 were prepared as follows: T4 coliphage DNA: 10 units of DNA were dissolved in 1 mL of 10 mM sodium phosphate (pH 7.1) and 0.25 mM EDTA buffer to give a 10A260 solution. 0.3 mL of the stock solution were diluted to 1.5 mL with 10 mM sodium phosphate (pH 7.1) and 0.25 mM EDTA buffer to give a 2A260 solution. Calf thymus DNA: 100 units of DNA were dissolved in 5 mL of 10 mM sodium phosphate (pH 7.1) and 0.25 mM EDTA buffer to give a 20A260 solution. 1.5 mL of the stock solution were diluted to 15 mL with 10 mM sodium phosphate (pH 7.1) and 0.25 mM EDTA buffer to give a 2A260 solution. Poly(dA-dT) and Poly(dG-dC) DNA: 100 units of DNA were dissolved in 10 mL of 10 mM sodium phosphate pH 7.1) and 0.25 mM EDTA buffer to give a 10A260 solution. 3 mL of the stock solution were diluted to 15 mL with 10 mM sodium phosphate (pH 7.1) and 0.25 mM EDTA buffer to give a 2A260 solution.
(§4) Aliquots of 10 mM stock drug solution (1 mg of drug to be tested was dissolved with 1 mole equivalent of 0.1M HCl, and then diluted with appropriate volume of distilled water to make a 10 mM solution) were then added to the fluorescing solution and the florescence measured after each addition until a 50% reduction of fluorescence occurred. If the 10 mM stock solution lowered the % fluorescence too quickly, the stock solution was further diluted to 1 mM prior to titration. The apparent binding constant was then calculated from this equation: KEtBr [EtBr]=Kapp [drug], where [drug]=the concentration of drug at a 50% reduction of fluorescence and KEtBr [1×10^7 M^-1 for calf thymus and coliphage T4 DNA^18, 9.5×10^6 M^-1 for poly(dA.dT)^30, and 9.9×10^6 M^-1 for poly(dG.dC)^30 ] and [EtBr] were known. The concentration of ethidium bromide was 1.3 μM. The Kapp values are shown in Table I. In a separate experiment, the Kapp of Compound 5 for calf thymus DNA and poly[dGdC] were determined to be 0.3×10^5 M^-1 and 2.6×10^5 M^-1, respectively. The error in these measurements is ±[…].

poly(dAdT) = test: ethidium displacement assay, poly(dAdT); assay type: binding; details: ± 0.02 × 10^5 M^-1, pH 7.4
Description: as §1, §2, §3, §4

[1] = system: human chronic myelogenous leukemic K562 cells; test: growth inhibition of K562 cells (MTT viability assay); assay type: cell-based; details: 1 hour drug exposure at 37° C.; 5-6 days; MTT
Experimental: The ability of the compounds of the present invention to inhibit the growth of human chronic myelogenous leukemic K562 cells was determined as follows.
The incubation was terminated by centrifugation (5 minutes, 300 g) and the cells washed once with drug-free medium.
Following the appropriate drug treatment, the cells were transferred to 96-well microtiter plates, 10^4 cells per well, 8 wells per sample. Plates were then kept in the dark at 37° C. in a humidified atmosphere containing 5% CO2. […] Following incubation of the plates of 5-6 days (to allow control cells to increase in the number by 10 fold) 20 μL of a 5 mg/mL solution of MTT in phosphate buffered saline was added to each well and the plates further incubated for 5 h. The plates were then centrifuged for 5 minutes at 300 g and the bulk of the medium pipetted from the cell pellet leaving 10-20 μL per well. 200 μL DMSO was added to each well and the samples agitated to ensure complete mixing. The optical density was then read at a wavelength of 550 nm on a Titertek Multiscan ELISA plate reader and the dose-response curve constructed.

[2] = system: DNAs [calf thymus, poly(dA dT) and poly(dG dC)]; test: circular dichroism (CD) titration, DNAs together; assay type: binding; details: for drug-induced CD bands, wavelength: drugs alone do not exhibit any CD spectra
Experimental: The DNA binding properties of the present compounds were assessed by circular dichroism (CD) titration experiments. Methods for CD titration can be found, for example, in Zimmer et al. (1986) Prog. Biophys. Molec. Biol 47, 31. The conformation of DNA can be readily determined by CD experiments, and for B-DNA, characteristic positive and negative Cotton effects are observed at 260 and 245 nm, respectively.
The interaction of Compounds 6-10 to a number of DNAs [calf thymus, poly(dA dT) and poly(dG dC)] were analyzed by CD titration studies. All the CD titration experiments were performed using identical procedures, concentrations of DNA, and increments of drug:DNA ratios (or `r`, i.e. moles of drug to moles of DNA base pairs). Therefore, the differences observed in the CD spectra for the titration of each of the compounds to the polydeoxynucleotides may be directly compared to reflect their DNA binding properties.
All experiments were performed with a continuous flow of nitrogen purging the polarimeter. A 1 mm path length jacketed cell was used and all experiments were done at room temperature. Initially, DNA [0.02 μ moles (base pairs), 130 μL] was placed in the cell and the spectrum of the DNA alone was collected. Aliquots of drug were added and the spectra collected. The drug solutions were 1 mM and amounts of the drug added correspond to a drug to base pair ratio of 0.05, 0.10, 0.15, 0.20, 0.25, 0.30, 0.40, 0.50, 0.60, 0.80, 1.00. The scan parameters were set and standard for all experiments. The spectra were collected from 400 nm to 200 nm. The sensitivity was set at 1 mdeg and the scan speed was set at 20 nm per minute. Three scans were accumulated and automatically averaged by the computer. The λmax and ellipticity (mdeg) for each spectrum were collected from the raw scans and the final plots were smoothed by the noise reduction program on the computer. […] The induced CD band is presumably due to the uv absorption π to π^* transition of the drug in the drug:DNA complex. […] Therefore interaction of these drugs with DNA causes only minor conformational changes in the double helix.

| Compound | Association constant Kapp (calf thymus DNA) [M⁻¹] | Association constant Kapp (poly(dAdT)) [M⁻¹] | IC50 [1] [µM] | binding preference from CD titration ([2]; induced band for poly(dG.dC) vs poly(dA.dT)) | drug-induced CD bands, wavelength [2] | CD titration result in words ([2]; three polydeoxyribonucleotides, r' up to 0.8) |
| --- | --- | --- | --- | --- | --- | --- |
| CN(C)CCNC(=O)c1nc(NC(=O)c2nc(NC(=O)c3nc(NCc4ccc(N(CCCl)CCCl)cc4)cn3C)cn2C)cn1C [Compound 8, N-(N',N'-dimethylaminoethyl)-1-methyl-4-{1-methyl-4-[4-(4,4-bis-(2-chloroethyl)aminobenzylamino)-1-methylimidazole-2-carboxamido]imidazole-2-carboxamido}imidazole-2-carboxamide] | 473000 | 457000 | 0.85 |  |  |  |
| CN(C)CCNC(=O)c1nc(NC(=O)c2nc(NC(=O)c3nc(NC(=O)CCCc4ccc(N(CCCl)CCCl)cc4)cn3C)cn2C)cn1C [Compound 10, N-(N',N'-dimethylaminoethyl)-1-methyl-4-{1-methyl-4-[4-(4,4-bis(2-chloroethyl)aminophenyl-1-butanamido)-1-methylimidazole-2-carboxamido]imidazole-2-carboxamido}imidazole-2-carboxamide] | 22000 | 13000 | 28 | binds more strongly to GC rich sequences of DNA |  |  |
| CN(C)CCNC(=O)c1nc(NC(=O)c2nc(NC(=O)c3ccc(N(CCCl)CCCl)cc3)cn2C)cn1C [Compound 6, N-(N',N'-dimethylaminoethyl)-1-methyl-4-{4-[4,4-bis(2-chloroethyl)aminobenzamido]-1-methylimidazole-2-carboxamido}imidazole-2-carboxamide] | 456000 | 475000 | 12.5 |  | 290-340 nm |  |
| CN(C)CCNC(=O)c1nc(NC(=O)c2nc(NC(=O)c3nc(NC(=O)c4ccc(N(CCCl)CCCl)cc4)cn3C)cn2C)cn1C [Compound 7, N-(N',N'-dimethylaminoethyl)-1-methyl-4-{1-methyl-4-[4-(4,4-bis-(2-chloroethyl)aminobenzamido)-1-methylimidazole-2-carboxamido]imidazole-2-carboxamido}imidazole-2-carboxamide] | 591000 | 950000 | 0.3 |  | 290-340 nm |  |
| CN(C)CCNC(=O)c1nc(NC(=O)c2nc(NC(=O)CCCc3ccc(N(CCCl)CCCl)cc3)cn2C)cn1C [Compound 9, N-(N',N'-dimethylaminoethyl)-1-methyl-4-{4-[4,4-bis(2-chloroethyl)aminophenyl-1-butanamido]-1-methylimidazole-2-carboxamido}imidazole-2-carboxamide] | 64000 | 54000 | 70 |  |  | did not produce any notable changes in the CD spectra |
